Assay results reported in the NIST ThermoML archive (doi:10.1021/je050062a).
Numbers after ± are expanded uncertainties.

What was measured:
[1] = Liquid; for mass density: 298.15 K, 101.33 kPa
[2] = refractive index (Na D-line) (dimensionless); conditions: 298.15 K; 101.33 kPa; Liquid; Standard Abbe refractometry

CC(=O)C(C)C [3-methyl-2-butanone]
Conditions | mass density [kg/m3] | refractive index
[1] | 799.55 ± 0.65 | –
[2] | – | 1.3862 ± 0.00074

[1]
Conditions | vapor or sublimation pressure [kPa]
310.45 K | 12.1 ± 0.11
318.08 K | 16.98 ± 0.11
324.32 K | 22.06 ± 0.12
328.85 K | 26.46 ± 0.13
330 K | 27.69 ± 0.79
333.49 K | 31.7 ± 0.14
337.18 K | 36.45 ± 0.15
340 K | 40.45 ± 0.87
340.26 K | 40.84 ± 0.16
346.23 K | 50.54 ± 0.18
348.87 K | 55.4 ± 0.19
353.57 K | 64.95 ± 0.21
357.9 K | 74.9 ± 0.23
361.86 K | 84.97 ± 0.26
365.36 K | 94.78 ± 0.28

CCCC(C)C [2-methylpentane]
Conditions | mass density [kg/m3] | refractive index
[1] | 648.46 ± 0.59 | –
[2] | – | 1.36877 ± 0.00072

Conditions | vapor or sublimation pressure [kPa]
[1], 330 K | 90.76 ± 1.2

CC(C)C(C)O (configuration not stated) [3-methyl-2-butanol]
Conditions | mass density [kg/m3] | refractive index
[1] | 813.42 ± 0.65 | –
[2] | – | 1.407 ± 0.00074

[1]
Conditions | vapor or sublimation pressure [kPa]
323.61 K | 6.527 ± 0.1
329.8 K | 9.28 ± 0.1
330 K | 9.35 ± 0.68
333.31 K | 11.16 ± 0.11
336.52 K | 13.19 ± 0.11
340 K | 15.7 ± 0.72
340.67 K | 16.23 ± 0.11
346.13 K | 21.09 ± 0.12
354.08 K | 30.24 ± 0.14
360.75 K | 40.25 ± 0.16
365.98 K | 49.79 ± 0.18
370.47 K | 59.38 ± 0.21
374.44 K | 69.02 ± 0.23
380.99 K | 87.65 ± 0.28
382.59 K | 92.61 ± 0.29
